According to patent publication US7776862B2, “Pyridyl and phenyl substituted piperazine-piperidines with CXCR3 antagonist activity” (Schering Corporation, priority 2005, dated 2010):

Molecular target: T1, human CXCR3 (N-delta 4) (Homo sapiens, UniProt P49682)
T1 construct: CD8 leader; Flag tag; expressed in transfected cells; membranes used
T1 sequence (P49682 5-368 limits assumed): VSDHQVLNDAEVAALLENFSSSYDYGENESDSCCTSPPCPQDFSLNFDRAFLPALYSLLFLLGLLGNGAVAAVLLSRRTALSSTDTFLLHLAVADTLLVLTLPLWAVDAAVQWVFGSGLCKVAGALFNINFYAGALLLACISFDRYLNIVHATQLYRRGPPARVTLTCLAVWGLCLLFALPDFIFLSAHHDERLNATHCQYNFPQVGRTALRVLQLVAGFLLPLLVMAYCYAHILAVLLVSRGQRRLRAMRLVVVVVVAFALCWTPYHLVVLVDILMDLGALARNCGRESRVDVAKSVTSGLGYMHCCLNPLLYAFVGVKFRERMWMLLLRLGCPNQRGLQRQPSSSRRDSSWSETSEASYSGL
Test: Human CXCR3 (N-delta 4) scintillation proximity assay (SPA), [125I] IP-10 binding
Conditions: IC50 rating; Ba/F3-hCXCR3 (N-delta 4) membranes, 25 pM [125I] IP-10
Outline: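 IP-10 and compound titrations added together. The receptor source was SPA beads bearing membranes from Ba/F3 cells transfected with human CXCR3 (N-delta 4) carrying a CD8 leader and Flag tag.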

SMILES | IC50 [nM]
CC[C@H]1CN(c2ncc(CN/C(=N\C#N)NC)cc2Cl)CCN1C1CCN(Cc2ccc(Cl)cc2F)CC1 [compound 403] | < 25
CCNC(=O)NCc1cnc(N2CCN(C3CCN(Cc4ccc(Cl)cc4)CC3)[C@@H](CC)C2)c(Cl)c1 [compound 397] | < 25
CC[C@H]1CN(c2ncc(C(N)=O)cc2Cl)CCN1C1CCN(C(=O)c2ccc(Cl)cc2)CC1 [compound 332] | > 100
O=C(NCCOc1ccccc1)c1cnc(N2CCN(C3CCN(Cc4ccc(-c5ccccc5)cc4)CC3)CC2)c(Cl)c1 [compound 165] | > 100
CC(C)NC(=O)c1cnc(N2CCN(C3CCN(Cc4ccc(Cl)cc4)CC3)[C@@H](C)C2)c(Cl)c1 [compound 236] | < 25
CNC(=O)c1cnc(N2CCN(C3CCN(Cc4c(F)cccc4F)CC3)[C@@H](C)C2)c(Cl)c1 [compound 366] | > 100
C[C@@H]1CN(c2ncc(C(=O)NCC3CCCCC3)cc2Cl)CCN1C1CCN(C(=O)c2ccc(C#N)cc2)CC1 [compound 250] | < 25
O=C(NCc1cccc(F)c1)c1cnc(N2CCN(C3CCN(Cc4ccc(Br)cc4)CC3)CC2)c(Cl)c1 [compound 100] | 25 to 100
O=C(NCCOc1ccccc1)c1cnc(N2CCN(C3CCN(Cc4ccc(Cl)c(Cl)c4)CC3)CC2)c(Cl)c1 [compound 49] | > 100
CC[C@H]1CN(c2ncc(COC(=O)Nc3c(C)noc3C)cc2Cl)CCN1C1CCN(Cc2ccc(Cl)cc2F)CC1 [compound 402] | < 25
N#Cc1ccc(C(=O)N2CCC(N3CCN(c4ncc(C(=O)NCc5ccc(F)c(Cl)c5)cc4Cl)CC3)CC2)cc1 [compound 83] | > 100
N#Cc1ccc(CN2CCC(N3CCN(c4ncc(C(=O)NCc5ccc(Cl)c(Cl)c5)cc4Br)CC3)CC2)cc1 [compound 145] | 25 to 100
O=C(NCc1ccc(F)c(Cl)c1)c1cnc(N2CCN(C3CCN(Cc4ccc(Cl)cc4)CC3)CC2)c(Cl)c1 [compound 150] | 25 to 100
CC[C@H]1CN(c2ncc(C(=O)NC(C)C)cc2Cl)CCN1C1CCN(C(=O)c2ccc(Cl)cc2)CC1 [compound 160] | 25 to 100
CC[C@H]1CN(c2ncc(CNC(=O)NC(C)(C)C)cc2Cl)CCN1C1CCN(Cc2ccc(Cl)cc2F)CC1 [compound 373] | < 25
O=C(NCc1cc(Cl)cc(Cl)c1)c1cnc(N2CCN(C3CCN(Cc4ccc(Cl)cc4)CC3)CC2)c(Cl)c1 [compound 52] | > 100
CC[C@H]1CN(c2ncc(C(=O)NC)c(N)c2Cl)CCN1C1CCN(Cc2ccc(Cl)cc2F)CC1 [compound 316] | 25 to 100
O=C(NC1CCc2ccccc21)c1cnc(N2CCN(C3CCN(Cc4ccc(Cl)cc4)CC3)CC2)c(Br)c1 (stereo not shown) [compound 3] | > 100
CC[C@H]1CN(c2ncc(CNC(=O)NC(C)C)cc2Cl)CCN1C1CCN(Cc2ccc(Cl)cc2F)CC1 [compound 370] | < 25
CC[C@H]1CN(c2ncc(CNC(N)=O)cc2Cl)CCN1C1CCN(Cc2ccc(Cl)cc2F)CC1 [compound 379] | < 25
C[C@H]1CN(c2ncc(C(=O)Nc3cc[nH]n3)cc2Cl)CCN1C1CCN(Cc2ccc(Cl)cc2)CC1 [compound 312] | 25 to 100
CCNC(=O)c1cnc(N2CCN(C3CCN(C(=O)c4ccc(-n5cccc5)cc4)CC3)[C@@H](CC)C2)c(Cl)c1 [compound 262] | < 25

SMILES | IC50 [nM]
Cc1cc(C(=O)NCC2CCCCC2)cnc1N1CCN(C2CCN(Cc3ccc(Cl)cc3)CC2)CC1 [compound 203] | > 100
O=C(NCc1ccc(F)cc1)c1cnc(N2CCN(C3CCN(Cc4ccc(Cl)cc4)CC3)CC2)c(Cl)c1 [compound 297] | 25 to 100
CNC(=O)c1cnc(N2CCN(C3CCN(Cc4ccc(Cl)cc4Cl)CC3)[C@@H](C)C2)c(Cl)c1 [compound 255] | < 25
CC1CC(N2CCN(c3ncc(C(=O)NCc4ccc(Cl)c(Cl)c4)cc3Cl)CC2)CCN1Cc1ccc(C#N)cc1 (stereo not shown) [compound 143] | 25 to 100
CC[C@H]1CN(c2ncc(C(N)=NO)cc2Cl)CCN1C1CCN(Cc2ccc(Cl)cc2F)CC1 [compound 404] | < 25
O=C(NCc1ccc(F)cc1F)c1cnc(N2CCN(C3CCN(Cc4ccc(F)cc4)CC3)CC2)c(Cl)c1 [compound 58] | > 100
O=C(NCc1ccc(F)c(F)c1)c1cnc(N2CCN(C3CCN(C(=O)c4ccc(Cl)c(Cl)c4)CC3)CC2)c(Cl)c1 [compound 351] | > 100
CC[C@H]1CN(c2ncc(CNC(N)=O)cc2Cl)CCN1C1CCN(Cc2ccc(Br)cc2F)CC1 [compound 376] | < 25
CCNC(=O)c1cnc(N2CCN(C3CCN(Cc4ccc(Cl)cc4F)CC3)C(CC(F)(F)F)C2)c(Cl)c1 (stereo not shown) [compound 275] | 25 to 100
O=C(NCc1ccc(Cl)cc1Cl)c1cnc(N2CCN(C3CCN(Cc4ccc(Cl)cc4)CC3)CC2)c(Cl)c1 [compound 149] | 25 to 100
N#Cc1ccc(CN2CCC(N3CCN(c4ncc(C(=O)NCCOc5ccccc5)cc4Br)CC3)CC2)cc1 [compound 314] | 25 to 100
CC[C@H]1CN(c2ncc(C(=O)NCc3ccc(F)c(F)c3)cc2Cl)CCN1C1CCN(Cc2ccc(Cl)cc2)CC1 [compound 221] | < 25
N#Cc1ccc(CN2CCC(N3CCN(c4ncc(C(=O)NCc5ccc(F)cc5)cc4Cl)CC3)CC2)cc1 [compound 321] | 25 to 100
O=C(NCc1ccccc1)c1cnc(N2CCN(C3CCN(Cc4ccc(Br)cc4)CC3)CC2)c(Cl)c1 [compound 39] | > 100
O=C(NCc1ccc(F)cc1F)c1cnc(N2CCN(C3CCN(Cc4ccc(Br)cc4)CC3)CC2)c(Cl)c1 [compound 79] | > 100
CNC(=O)c1cnc(N2CCN(C3(C)CCN(Cc4ccc(Cl)cc4)CC3)[C@@H](C)C2)c(Cl)c1 [compound 205] | > 100
O=C(NCc1ccc(F)cc1)c1cnc(N2CCN(C3CCN(Cc4ccc(Cl)c(F)c4)CC3)CC2)c(Cl)c1 [compound 139] | 25 to 100
O=C(NCCOc1ccccc1)c1cnc(N2CCN(C3CCN(Cc4ccc(Cl)cc4)CC3)CC2)c(Cl)c1 [compound 323] | 25 to 100
O=C(NCc1ccc(F)c(F)c1)c1cnc(N2CCN(C3CCN(Cc4ccc([N+](=O)[O-])cc4)CC3)CC2)c(Br)c1 [compound 164] | < 25
C[C@H]1CN(c2ncc(C(=O)Nc3ccon3)cc2Cl)CCN1C1CCN(Cc2ccc(Cl)cc2)CC1 [compound 233] | < 25
CC(c1ccc([N+](=O)[O-])cc1)N1CCC(N2CCN(c3ncc(C(=O)NCc4ccc(Cl)c(Cl)c4)cc3Cl)CC2)CC1 (stereo not shown) [compound 74] | > 100
CNC(=O)c1cnc(N2CCN(C3CCN(Cc4ccc(Cl)cc4)CC3C)CC2)c(Cl)c1 (stereo not shown) [compound 302] | 25 to 100

SMILES | IC50 [nM]
CCOC(CNC(=N)c1cnc(N2CCN(C3CCN(Cc4ccc(Cl)cc4F)CC3)[C@@H](CC)C2)c(Cl)c1)OCC [compound 422] | 25 to 100
CC1CN(c2ncc(C(=O)NCc3ccc(F)c(F)c3)cc2Cl)CCN1C1CCN(Cc2ccc([N+](=O)[O-])cc2)CC1 (stereo not shown) [compound 187] | < 25
O=C(NC1CCCC1)c1cnc(N2CCN(C3CCN(Cc4ccc(Cl)cc4)CC3)CC2)c(Br)c1 [compound 189] | > 100
O=C(NCc1ccc(Cl)c(Cl)c1)c1cnc(N2CCN(C3CCN(Cc4ccc(Br)cc4)CC3)CC2)c(Br)c1 [compound 284] | 25 to 100
N#Cc1ccc(C(=O)N2CCC(N3CCN(c4ncc(C(=O)NCc5ccc(Cl)c(Cl)c5)cc4Br)CC3)CC2)cc1 [compound 285] | 25 to 100
CC[C@H]1CN(c2c(Cl)cc(C(=O)OC)c[n+]2[O-])CCN1C1CCN(Cc2ccc(Cl)cc2F)CC1 [compound 458] | 25 to 100
O=C(NCc1ccc(Br)cc1)c1cnc(N2CCN(C3CCN(Cc4ccc(Cl)cc4)CC3)CC2)c(Cl)c1 [compound 136] | 25 to 100
COC(=O)c1cnc(N2CCN(C3CCN(Cc4ccc(F)cc4)CC3)[C@@H](C)C2)c(Cl)c1 [compound 449] | > 100
CNC(=O)c1cnc(N2CCN(C3CCN(Cc4ccc(Cl)cc4)CC3)CC2C)c(Cl)c1 (stereo not shown) [compound 138] | 25 to 100
O=C(NCc1ccc(F)cc1)c1cnc(N2CCN(C3CCN(Cc4ccc(F)c(F)c4)CC3)CC2)c(Cl)c1 [compound 106] | 25 to 100
COc1ccc(CN2CCC(N3CCN(c4ncc(C(=O)NCc5ccc(Cl)cc5)cc4Cl)CC3)CC2)cc1 [compound 103] | 25 to 100
CC[C@H]1CN(c2ncc(CNS(=O)(=O)C(F)(F)F)cc2Cl)CCN1C1CCN(Cc2ccc(Cl)cc2F)CC1 [compound 443] | > 100
O=C(NCc1ccc(F)cc1)c1cnc(N2CCN(C3CCN(Cc4ccc(Br)cc4F)CC3)CC2)c(Cl)c1 [compound 4] | > 100
CC[C@H]1CN(c2ncc(C(=O)NC3CC3)cc2Cl)CCN1C1CCN(Cc2ccc(Cl)cc2F)CC1 [compound 215] | < 25
COC(=O)c1ccc(N2C[C@H](C)N(C3CCN(Cc4ccc(Cl)cc4F)CC3)C[C@H]2C)nc1 [compound 456] | > 100
CC[C@H]1CN(c2ncc(CO)cc2Cl)CCN1C1CCN(Cc2ccc(Cl)cc2F)CC1 [compound 392] | < 25
O=C(NCc1ccc(F)c(Cl)c1)c1cnc(N2CCN(C3CCN(Cc4ccc([N+](=O)[O-])cc4)CC3)CC2)c(Cl)c1 [compound 158] | 25 to 100
O=C(NCc1ccc(Cl)cc1)c1cnc(N2CCN(C3CCN(Cc4ccc(F)cc4)CC3)CC2)c(Cl)c1 [compound 151] | 25 to 100
CC1(N2CCN(c3ncc(C(=O)NCC4CCCCC4)cc3Cl)CC2)CCN(Cc2ccc(Cl)cc2)CC1 [compound 202] | 25 to 100
COc1ccc(CN2CCC(N3CCN(c4ncc(C(=O)NCCOc5ccccc5)cc4Br)CC3)CC2)cc1 [compound 304] | 25 to 100
